# From patent publication US20110111400A1, “METHOD FOR ENHANCING CHEMICAL SENSITIVITY OR RADIOSENSITIVITY OF CANCER CELLS BY INHIBITING EXPRESSION OF TSPYL5” (Korea Atomic Energy Research Institute, priority 2009, published 2011)
# Legend:
# [1] = tested on: TSPYL5 gene; assay: RT-PCR of TSPYL5 expression level after siRNA transduction, A549; format: cell-based, human; conditions: A549 cells, 40~80 nM RNAi, compared to siControl
# Description: (§1) In order to compare the expression levels of TSPYL5 in lung cancer cell lines A549, H460, and H1299, reverse transcription polymerase chain reaction (RT-PCR) was performed. The RT-PCR was performed in the following manner: a mixture of 10 mM dNTPs, 5×RT buffer, 0.5 μg/μl oligo dT, addition of each of 4 μg of heat denaturated (70° C., 10 min) total RNA of lung cancer cell lines H460, A549, and H1299, and 200 U/μl M-MLV RTase, 0.02% diethyl pyrocarbonate (DEPC)-treated sterilized water to a final volume of 20 μl, followed by reaction at 45° C. for 30 min. Next, the mixture was heated to 94° C. for 5 min, and then snap-cooled on ice to deactivate the M-MLV RTase. 1 μl of the cDNA synthesized by the method was mixed with 10× buffer (MgCl2 free), 2.5 mM dNTPs, 10× MgCl2, and Taq DNA polymerase. 10 pmol of primer for TSPYL5 or β-actin was added to the mixture and amplified under the following conditions. Then, for TSPYL5 primer, EcoRI/Forward: 5′-[…]-3′ represented by SEQ ID No: 3 as a forward primer and EcoRI/reverse: 5′-CCGGAATTCTC AGTTGGATTGGCTCACCCC-3′ represented by SEQ ID NO: 4 as a reverse primer were used. Pre-denaturation at 94° C. for 5 min, denaturation at 94° C. for 1 min, annealing at 60° C. for 1.5 min, cycles of elongation at 72° C. for 1 min were performed, followed by post-elongation at 72° C. for 10 min. […]
# [2] = tested on: TSPYL5 gene; assay: RT-PCR of TSPYL5 expression level after siRNA transduction, H1299; format: cell-based, human; conditions: H1299 cells, 40~80 nM RNAi, compared to siControl
# Description: as §1
substance,measurement,setting,value
"C2-131714: 25mer TSPYL5 stealth-RNAi duplex oligoribonucleotide, SEQ ID Nos: 10 and 11 (chain 1 AAAGGUAGAACUGCAAGGGAUUGGG; chain 2 CCCAAUCCCUUGCAGUUCUACCUUU; Invitrogen Stealth RNAi, modifications not given here)",expression levels of TSPYL5,[1],reduced the most effectively
same,expression levels of TSPYL5,[2],reduced the most effectively
